± gives the expanded uncertainty stated by the source.
Assay: xn = mol fraction of the nth substance listed
Details: 101 kPa, Liquid; for viscosity: Falling or rolling sphere viscometry; for mass density: Vibrating tube method

Cn1cc[n+](CCC[N+](C)(C)C)c1.N#C[N-]C#N.N#C[N-]C#N + CC(C)O
Details	mass density [kg/m3]	viscosity [mPa·s]
283.15 K, x1 = 0.1001	905.3 ± 2.2	12.27 ± 1.2
283.15 K, x1 = 0.2	978.56 ± 2.1	31.98 ± 3.2
283.15 K, x1 = 0.2999	1028.83 ± 2	71.59 ± 7.2
283.15 K, x1 = 0.4	1065.91 ± 2	152.1 ± 16
283.15 K, x1 = 0.5001	1094.18 ± 2	290.4 ± 33
283.15 K, x1 = 0.5998	1114.84 ± 2	452 ± 55
283.15 K, x1 = 0.7002	1130.38 ± 2	742.9 ± 97
283.15 K, x1 = 0.8001	1142.95 ± 2	1216 ± 170
283.15 K, x1 = 0.8985	1153.75 ± 2	2301 ± 360
283.15 K, x1 = 1	1162.82 ± 2	4998 ± 870
288.15 K, x1 = 0.1001	901.8 ± 2.2	10.23 ± 1
288.15 K, x1 = 0.2	975.32 ± 2.1	25.55 ± 2.6
288.15 K, x1 = 0.2999	1025.72 ± 2	54.85 ± 5.5
288.15 K, x1 = 0.4	1062.7 ± 2	110.5 ± 11
288.15 K, x1 = 0.5001	1091.1 ± 2	204.6 ± 22
288.15 K, x1 = 0.5998	1111.98 ± 2	303.9 ± 35
288.15 K, x1 = 0.7002	1127.66 ± 2	493.5 ± 60
288.15 K, x1 = 0.8001	1140.22 ± 2	749.8 ± 98
288.15 K, x1 = 0.8985	1150.85 ± 2	1346 ± 190
288.15 K, x1 = 1	1159.76 ± 2	2736 ± 430
293.15 K, x1 = 0.1001	898.28 ± 2.2	8.914 ± 0.9
293.15 K, x1 = 0.2	972.09 ± 2.1	21.4 ± 2.1
293.15 K, x1 = 0.2999	1022.6 ± 2	44.54 ± 4.5
293.15 K, x1 = 0.4	1059.76 ± 2	85.03 ± 8.6
293.15 K, x1 = 0.5001	1088.04 ± 2	153 ± 16
293.15 K, x1 = 0.5998	1108.93 ± 2	219.1 ± 24
293.15 K, x1 = 0.7002	1124.71 ± 2	341.4 ± 40
293.15 K, x1 = 0.8001	1137.27 ± 2	498.6 ± 61
293.15 K, x1 = 0.8985	1147.89 ± 2	843.4 ± 110
293.15 K, x1 = 1	1156.74 ± 2	1608 ± 240
298.15 K, x1 = 0.1001	894.74 ± 2.2	7.619 ± 0.77
298.15 K, x1 = 0.2	968.65 ± 2.1	18.02 ± 1.8
298.15 K, x1 = 0.2999	1019.48 ± 2	35.75 ± 3.6
298.15 K, x1 = 0.4	1056.42 ± 2	66.38 ± 6.7
298.15 K, x1 = 0.5001	1084.68 ± 2	116.5 ± 12
298.15 K, x1 = 0.5998	1105.58 ± 2	163 ± 17
298.15 K, x1 = 0.7002	1121.85 ± 2	245.1 ± 27
298.15 K, x1 = 0.8001	1134.38 ± 2	342.8 ± 40
298.15 K, x1 = 0.8985	1144.95 ± 2	558.1 ± 70
298.15 K, x1 = 1	1153.73 ± 2	1007 ± 140
303.15 K, x1 = 0.1001	891.18 ± 2.2	6.585 ± 0.66
303.15 K, x1 = 0.2	965.32 ± 2.1	15.28 ± 1.5
303.15 K, x1 = 0.2999	1016.38 ± 2	29.22 ± 2.9
303.15 K, x1 = 0.4	1053.15 ± 2	53.45 ± 5.4
303.15 K, x1 = 0.5001	1081.45 ± 2	90.62 ± 9.2
303.15 K, x1 = 0.5998	1102.88 ± 2	124.3 ± 13
303.15 K, x1 = 0.7002	1118.91 ± 2	181.3 ± 20
303.15 K, x1 = 0.8001	1131.5 ± 2	245.7 ± 27
303.15 K, x1 = 0.8985	1141.97 ± 2	387.2 ± 46
303.15 K, x1 = 1	1150.76 ± 2	662.9 ± 85
308.15 K, x1 = 0.1001	887.61 ± 2.2	5.755 ± 0.58
308.15 K, x1 = 0.2	962.09 ± 2.1	13.11 ± 1.3
308.15 K, x1 = 0.2999	1013.25 ± 2	24.31 ± 2.4
308.15 K, x1 = 0.4	1050.12 ± 2	43.61 ± 4.4
308.15 K, x1 = 0.5001	1078.35 ± 2	71.82 ± 7.2
308.15 K, x1 = 0.5998	1099.87 ± 2	97.07 ± 9.9
308.15 K, x1 = 0.7002	1116.01 ± 2	137.7 ± 14
308.15 K, x1 = 0.8001	1128.64 ± 2	182 ± 20
308.15 K, x1 = 0.8985	1139.04 ± 2	278.9 ± 32
308.15 K, x1 = 1	1147.8 ± 2	455.4 ± 55
313.15 K, x1 = 0.1001	884.01 ± 2.2	5.069 ± 0.51
313.15 K, x1 = 0.2	959.16 ± 2.1	11.51 ± 1.2
313.15 K, x1 = 0.2999	1009.82 ± 2	20.53 ± 2.1
313.15 K, x1 = 0.4	1046.89 ± 2	36.31 ± 3.6
313.15 K, x1 = 0.5001	1075.26 ± 2	58.15 ± 5.8
313.15 K, x1 = 0.5998	1096.85 ± 2	77.62 ± 7.8
313.15 K, x1 = 0.7002	1113.12 ± 2	107.2 ± 11
313.15 K, x1 = 0.8001	1125.89 ± 2	138.5 ± 14
313.15 K, x1 = 0.8985	1136.19 ± 2	207.8 ± 23
313.15 K, x1 = 1	1144.89 ± 2	324.6 ± 37
318.15 K, x1 = 0.1001	880.4 ± 2.2	4.515 ± 0.46
318.15 K, x1 = 0.2	955.64 ± 2.1	10.08 ± 1
318.15 K, x1 = 0.2999	1006.35 ± 2	17.42 ± 1.8
318.15 K, x1 = 0.4	1043.68 ± 2	30.62 ± 3.1
318.15 K, x1 = 0.5001	1072.32 ± 2	48.57 ± 4.9
318.15 K, x1 = 0.5998	1094.09 ± 2	63.07 ± 6.3
318.15 K, x1 = 0.7002	1110.26 ± 2	85.59 ± 8.7
318.15 K, x1 = 0.8001	1123.09 ± 2	109 ± 11
318.15 K, x1 = 0.8985	1133.33 ± 2	160.3 ± 17
318.15 K, x1 = 1	1142 ± 2	239.7 ± 27
323.15 K, x1 = 0.1001	876.76 ± 2.2	4.052 ± 0.41
323.15 K, x1 = 0.2	952.12 ± 2.1	8.828 ± 0.89
323.15 K, x1 = 0.2999	1002.86 ± 2	15.18 ± 1.5
323.15 K, x1 = 0.4	1040.46 ± 2	26.11 ± 2.6
323.15 K, x1 = 0.5001	1069.5 ± 2	40.73 ± 4.1
323.15 K, x1 = 0.5998	1091.18 ± 2	52.16 ± 5.2
323.15 K, x1 = 0.7002	1107.31 ± 2	70.03 ± 7
323.15 K, x1 = 0.8001	1120.31 ± 2	86.93 ± 8.8
323.15 K, x1 = 0.8985	1130.45 ± 2	125.4 ± 13
323.15 K, x1 = 1	1139.11 ± 2	181.2 ± 20
328.15 K, x1 = 0.1001	873.09 ± 2.2	3.672 ± 0.37
328.15 K, x1 = 0.2	948.69 ± 2.1	7.836 ± 0.79
328.15 K, x1 = 0.2999	1000.05 ± 2	13.38 ± 1.3
328.15 K, x1 = 0.4	1037.56 ± 2	22.57 ± 2.3
328.15 K, x1 = 0.5001	1066.62 ± 2	34.87 ± 3.5
328.15 K, x1 = 0.5998	1088.47 ± 2	45.82 ± 4.6
328.15 K, x1 = 0.7002	1104.35 ± 2	58.38 ± 5.9
328.15 K, x1 = 0.8001	1117.52 ± 2	71.22 ± 7.2
328.15 K, x1 = 0.8985	1127.59 ± 2	101.4 ± 10
328.15 K, x1 = 1	1136.24 ± 2	141.1 ± 15
333.15 K, x1 = 0.1001	869.4 ± 2.2	3.36 ± 0.34
333.15 K, x1 = 0.2	945.77 ± 2.1	6.989 ± 0.7
333.15 K, x1 = 0.2999	996.95 ± 2	11.94 ± 1.2
333.15 K, x1 = 0.4	1034.62 ± 2	19.89 ± 2
333.15 K, x1 = 0.5001	1063.89 ± 2	29.99 ± 3
333.15 K, x1 = 0.5998	1085.59 ± 2	39.36 ± 4
333.15 K, x1 = 0.7002	1101.65 ± 2	49.32 ± 5
333.15 K, x1 = 0.8001	1114.82 ± 2	59.34 ± 6
333.15 K, x1 = 0.8985	1124.75 ± 2	83.14 ± 8.4
333.15 K, x1 = 1	1133.4 ± 2	111.9 ± 12

Source: the NIST ThermoML archive (doi:10.1016/j.jct.2019.02.031)
